Biological target: T1, GID4 (Uniprot ID: Q81VV7, residues 124-289) (Homo sapiens, UniProt Q8IVV7)
T1 construct: GID4 (Uniprot ID: Q81VV7, residues 124-289)
T1 sequence (Q8IVV7 124-289): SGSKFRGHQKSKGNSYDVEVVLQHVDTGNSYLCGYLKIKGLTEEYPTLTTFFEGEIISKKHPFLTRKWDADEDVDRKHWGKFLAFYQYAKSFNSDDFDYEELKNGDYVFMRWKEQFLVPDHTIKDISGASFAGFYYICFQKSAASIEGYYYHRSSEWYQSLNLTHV
Assay: GID4 competitive binding assay (AlphaScreen, GID4/degron peptide PGLW)
Conditions: 24 nM GID4, 48 nM biotinylated degron peptide PGLW, 4° C., read-out: IC50 (Inhibition of GID4/Degron binding by test compounds)
Protocol: GID4 Competitive Binding Assay
GID4 binding affinity of compounds disclosed herein was measured by monitoring the interaction of GID4 with its degron peptide (PGLW) in the presence of the test compounds. A truncated version of GID4 (Uniprot ID: Q81VV7, residues 124-289) with a 6*His at its C-terminus was used in this assay. Tetrapeptide, PGLW, was synthesized and tagged with an additional lysine labeled with biotin at its sidechain.
GID4 competitive binding assays were performed in a 384-well plate at 4° C. in a 20 μL reaction volume. Briefly, 24 nM GID4 (final concentration) proteins were pre-incubated with 48 nM biotinylated degron peptide (final concentration) in an assay buffer containing 20 mM HEPES, pH 7.5, 100 mM NaCl, 1 mM DTT, 0.1% Tween-20, and 0.05% BSA in the presence of the test compound in 2% DMSO (final concentration) at various concentrations for 2 h. 5 ug/ml Streptavidin ALphaScreen donor beads and 5 ug/ml nickel chelate (Ni-NTA) ALphaScreen acceptor beads (PerkinElmer, 6760619C) (final concentrations) were then added to the mixture. After an incubation of 1 h at 4° C., the fluorescent signals were obtained on the EnVision® 2105 Multilabel Plate Reader (PerkinElmer).
Raw ALphaScreen data were converted to a percentage of inhibition (relative to DMSO) using the following equations: […]
For a given test compound concentration X:
Signal (X)=Signal (GID4 & peptide & compound)−Signal (GID4 & buffer & compound)
Percentage of inhibition at concentration X=[1−Signal(X)/Signal (DMSO)]*100% b)
The IC50 values were determined by nonlinear regression of plots of [inhibitor] vs. percentage of inhibition with variable slope.
Table 3 summarizes the inhibition of binding between GID4 and degron peptide with compounds of the present disclosure. Compounds were ranked into bins as follows for IC50: A indicates <500 nM; B indicates 500 nM-5000 nM; C indicates >5000 nM.

Compound | IC50 [nM]
Nc1nc(NC2CC2)c(Cl)c(N2CCNC(c3ccccc3Br)C2)n1 (stereo not shown) [Compound 63, 6-(3-(2-bromophenyl)piperazin-1-yl)-5-chloro-N4-cyclopropylpyrimidine-2,4-diamine] | 500 to 5000
CN(C)CCCNC(=O)c1ccc(-c2cc(O)c3ncccc3c2)c(F)c1 [Compound 325, N-(3-(dimethylamino)propyl)-3-fluoro-4-(8-hydroxyquinolin-6-yl)benzamide] | 500 to 5000
CC(C)c1cc(N2CCNC(c3ccc(F)cc3Br)C2)nc(N)n1 (stereo not shown) [Compound 173, 4-(3-(2-bromo-4-fluorophenyl)piperazin-1-yl)-6-isopropylpyrimidin-2-amine] | < 500
CNc1cc(N2CCN(C)[C@H](c3ccccc3Br)C2)nc(NC)n1 (stereo in doubt) [Compound 80, (R/S)-6-(3-(2-bromophenyl)-4-methylpiperazin-1-yl)-N2,N4-dimethylpyrimidine-2,4-diamine] | 500 to 5000
c1ccn2c(C3CCCN(c4ncnc5[nH]ccc45)C3)cnc2c1 (stereo not shown) [Compound 90, 4-(3-(imidazo[1,2-a]pyridin-3-yl)piperidin-1-yl)-7H-pyrrolo[2,3-d]pyrimidine] | > 5000
CC(C)c1nc(N)cc(N2CCOC(c3ccccc3Br)C2)n1 (single isomer, unassigned) [Compound 73, (R/S)-6-(2-(2-bromophenyl)morpholino)-2-isopropylpyrimidin-4-amine] | 500 to 5000
Nc1nc2c(c(N3CCNC(c4nnc[nH]4)C3)n1)CSC2 (stereo not shown) [Compound 185, 4-(3-(4H-1,2,4-triazol-3-yl)piperazin-1-yl)-5,7-dihydrothieno[3,4-d]pyrimidin-2-amine] | 500 to 5000
CNc1cc(N2CCN(C)[C@@H](c3ccccc3Br)C2)nc(NC)n1 (stereo in doubt) [Compound 81, (S/R)-6-(3-(2-bromophenyl)-4-methylpiperazin-1-yl)-N2,N4-dimethylpyrimidine-2,4-diamine] | 500 to 5000
CC(C)c1cc(NCCc2c[nH]c3ccccc23)nc(N)n1 [Compound 203, N4-(2-(1H-indol-3-yl)ethyl)-6-isopropylpyrimidine-2,4-diamine] | > 5000
Cc1cc(-c2cc(O)c3ncccc3c2)ccc1C(=O)NCCCN(C)C [Compound 311, N-(3-(dimethylamino)propyl)-4-(8-hydroxyquinolin-6-yl)-2-methylbenzamide] | 500 to 5000
CC(C)c1cc(N2CCN[C@H](c3cnc4ccccn34)C2)c2nc[nH]c2n1 (stereo in doubt) [Compound 369, (S/R)-7-(3-(imidazo[1,2-a]pyridin-3-yl)piperazin-1-yl)-5-isopropyl-3H-imidazo[4,5-b]pyridine] | < 500
Nc1nccc2ccc(-c3ccc4[nH]cnc4c3)cc12 [Compound 362, 7-(1H-benzo[d]imidazol-5-yl)isoquinolin-1-amine] | 500 to 5000
CC(C)c1cc(N2CCNC(c3cc(C(=O)NCCN(C)C)ccc3Br)C2)nc(N)n1 (racemic) [Compound 21, R or S-3-(4-(2-amino-6-isopropylpyrimidin-4-yl)piperazin-2-yl)-4-bromo-N-(2-(dimethylamino)ethyl)benzamide] | < 500
Nc1nc(C2CC2)cc(N2CCN[C@@H](c3ccccc3Br)C2)n1 (stereo in doubt) [Compound 133, (S/R)-4-(3-(2-bromophenyl)piperazin-1-yl)-6-cyclopropylpyrimidin-2-amine] | 500 to 5000
Nc1cc(N2CCCC(c3cnc4ncccn34)C2)nc(N)n1 (stereo not shown) [Compound 241, 6-(3-(imidazo[1,2-a]pyrimidin-3-yl)piperidin-1-yl)pyrimidine-2,4-diamine] | > 5000
CCc1cc(N2CCNC(c3cnc4ccccn34)C2)nc(N)n1 (single isomer, unassigned) [Compound 27, (R/S)-4-ethyl-6-(3-(imidazo[1,2-a]pyridin-3-yl)piperazin-1-yl)pyrimidin-2-amine] | > 5000
CN1CCCC(CNC(=O)c2ccc(-c3cc(O)c4ncccc4c3)cc2)C1 (stereo not shown) [Compound 290, 4-(8-hydroxyquinolin-6-yl)-N-((1-methylpiperidin-3-yl)methyl)benzamide] | < 500
Nc1cc(N2CCOC(c3cnc4ccccn34)C2)nc(N)n1 (single isomer, unassigned) [Compound 137, (S/R)-6-(2-(imidazo[1,2-a]pyridin-3-yl)morpholino)pyrimidine-2,4-diamine] | > 5000
CC(=O)N1CCN(c2cc(N)nc(NC3CC3)n2)CC1c1ccccc1Br (stereo not shown) [Compound 52, 1-(4-(6-amino-2-(cyclopropylamino)pyrimidin-4-yl)-2-(2-bromophenyl)piperazin-1-yl)ethan-1-one] | 500 to 5000

The remaining lines, values ahead:

IC50 [nM] | Compound
> 5000 | Nc1cc(N2CCCC(n3c(=O)[nH]c4ccccc43)C2)nc(N)n1 (stereo not shown) [Compound 257, 1-(1-(2,6-diaminopyrimidin-4-yl)piperidin-3-yl)-1,3-dihydro-2H-benzo[d]imidazol-2-one]
500 to 5000 | CC(C)c1cc(N2CCNC(c3cc(Br)ccc3Br)C2)nc(N)n1 (stereo not shown) [Compound 200, 4-(3-(2,5-dibromophenyl)piperazin-1-yl)-6-isopropylpyrimidin-2-amine]
< 500 | CN1CCC(CNC(=O)c2n[nH]c3ccc(-c4ccc5ccnc(N)c5c4)cc23)CC1 [Compound 337, 5-(1-aminoisoquinolin-7-yl)-N-((1-methylpiperidin-4-yl)methyl)-1H-indazole-3-carboxamide]
< 500 | Cc1c(-c2ccc(Br)c(C3CN(c4cc(C(C)C)nc(N)n4)CCN3)c2)cnn1C (single isomer, unassigned) [Compound 6, R or S-4-(3-(2-bromo-5-(1,5-dimethyl-1H-pyrazol-4-yl)phenyl)piperazin-1-yl)-6-isopropylpyrimidin-2-amine]
< 500 | Nc1nccc2ccc(-c3ccc4[nH]nc(C(=O)N5CCC(N)CC5)c4c3)cc12 [Compound 339, (5-(1-aminoisoquinolin-7-yl)-1H-indazol-3-yl)(4-aminopiperidin-1-yl)methanone]
500 to 5000 | CNc1cc(N2CCCC(c3cnc4ccccn34)C2)nc(C(C)C)n1 (single isomer, unassigned) [Compound 125, (S/R)-6-(3-(imidazo[1,2-a]pyridin-3-yl)piperidin-1-yl)-2-isopropyl-N-methylpyrimidin-4-amine]
< 500 | CC(C)c1nc(N)cc(N2CCO[C@@H](c3ccccc3Br)C2)n1 (racemic) [Compound 72, (S/R)-6-(2-(2-bromophenyl)morpholino)-2-isopropylpyrimidin-4-amine]
500 to 5000 | Nc1cc(Nc2cccc(-c3cnccn3)c2)nc(N)n1 [Compound 192, N4-(3-(pyrazin-2-yl)phenyl)pyrimidine-2,4,6-triamine]
< 500 | CN(C)[C@H]1C[C@@H](NC(=O)c2ccc(-c3cc(O)c4ncccc4c3)cc2)C1 [Compound 279, N-(cis-3-(dimethylamino)cyclobutyl)-4-(8-hydroxyquinolin-6-yl)benzamide]
< 500 | Cc1c(-c2ccc(Br)c([C@H]3CN(c4cc(N)nc(N)n4)CCN3)c2)cnn1C (racemic) [Compound 5, (S/R)-6-(3-(2-bromo-5-(1,5-dimethyl-1H-pyrazol-4-yl)phenyl)piperazin-1-yl)pyrimidine-2,4-diamine]
500 to 5000 | Nc1nc(NC2CC2)nc(N2CCN[C@@H](c3ccccc3Br)C2)n1 (stereo in doubt) [Compound 65, (S/R)-6-(3-(2-bromophenyl)piperazin-1-yl)-N2-cyclopropyl-1,3,5-triazine-2,4-diamine]
500 to 5000 | CN(C)CCCNC(=O)c1ccc(-c2cc(O)c3nccc(N)c3c2)cc1 [Compound 265, 4-(4-amino-8-hydroxyquinolin-6-yl)-N-(3-(dimethylamino)propyl)benzamide]
500 to 5000 | CC(C)c1nc(N)cc(N2CCN[C@@H](c3ccccc3Br)C2)n1 (racemic) [Compound 75, (S/R)-6-(3-(2-bromophenyl)piperazin-1-yl)-2-isopropylpyrimidin-4-amine]
500 to 5000 | Nc1nc(NC2CC2)cc(N2CCN(CCO)C(c3ccccc3Br)C2)n1 (single isomer, unassigned) [Compound 44, (R/S)-2-(4-(2-amino-6-(cyclopropylamino)pyrimidin-4-yl)-2-(2-bromophenyl)piperazin-1-yl)ethan-1-ol]
> 5000 | Nc1nc(C2CC2)cc(N2CCCC(c3ccn[nH]3)C2)n1 (stereo not shown) [Compound 211, 4-(3-(1H-pyrazol-5-yl)piperidin-1-yl)-6-cyclopropylpyrimidin-2-amine]

Source: patent US20240132464A1, “HETEROCYCLIC COMPOUNDS AS E3 LIGASE INHIBITORS” (Accutar Biotechnology Inc., priority 2022, published 2024)
